Test [1] relates to A549 cells. As to the kind of experiment: Cell cycle PI staining FACS, A549. The format is cell-based, human. Conditions: A549, 0.5, 1.0, 1.5 μM, 24 h. The text has this: TS is a crucial enzyme in the DNA synthesis stage. When it is inhibited, first to show cell cycle arrest at G1/S phase. […] Flow cytometry show (Fig. 3), as the concentration of the compound increases, the cells in the G0/G1 phase increase, the cells in the S phase and the G2/M phase decrease. Eventually, the proliferation of cancer cells was inhibited by the G1/S phase arrest of the compound L14e.

Test [2] relates to HPAEpiC cell line. As to the kind of experiment: Selectivity index against HPAEpiC. The format is cell-based. Conditions: SI = CC50/IC50.
Test [3] has as its target T1, human TS (hTS) (Homo sapiens, UniProt P04818).
T1 construct: purchased ProSpec-Tany
The test can be described thus: Thymidylate synthase (TS) spectrophotometric assay. It counts as biochemical. Conditions: averages from triplicate assays. The procedure: Recombinant human thymidylate synthase purchased from ProSpec-Tany Company. TS was assayed spectrophotometrically at 30 °C and pH 7.4 in a mixture containing 0.1 M 2-mercaptoethanol, 0.0003 M (6R,S)-tetrahydrofolate, 0.012 M formaldehyde, 0.02 M MgCl2, 0.001 M dUMP, 0.04 M Tris–HCl, 30 nM hTS, and 0.00075 M NaEDTA. […] The reaction was initiated by the addition of an amount of enzyme yielding a change in absorbance at 340 nm of 0.016/min in the absence of inhibitor.

Test [4] concerns SGC7901 cells. The test can be described thus: MTT assay SGC7901. The format is cell-based. Conditions: Homo sapiens, SGC-7901, 24h of treatment, mean ± SD. The protocol: (§1) Details are given in Supplementary Materials and Methods. Using probability unit and weighted regression method to calculate the IC50 value of compounds.
(§2) Total cells in the logarithmic growth phase were collected, digested using 0.25% pancreatic enzymes, and then diluted into single-cell suspensions using phosphate-buffered solution (PBS). These cells were seeded into 96-well plates at 4× 10^3-5× 10^3 cells per well (100 µL per well) and then A549, H460, OVCAR-3, SGC7901, MDA-MB-231, HCT116 and HepG2 were cultured at 37°Cin an incubator containing 5% CO2. After cell complete attachment, 100 µL of different concentrations of compounds (0.625 μM, 1.25 μM, 2.5μM, 5 μM, 10 μM) were added to the cells after the nutrient solution in each well was discarded, while no compound except 0.1% DMSO was added to cells in the control group; at the same time, each concentration was set up to 5 wells. In addition, 5 wells in each 96-well plate only received 100 µL of nutrient solution as a blank control. The plates were taken out after the cells were incubated with compounds for 24 h, and 20 µL of MTT solution (5 mg/mL) (Wuhan Boster Biotechnology Limited Company, Wuhan, China; item No. AR1156) was added into all the wells. After another time of incubation for 4 h at 37 °C, the nutrient solution in each well was discarded slowly, and 150 µL of DMSO was added to each well. The plates were shaken on a shaking table for 20 min. When the crystals were fully dissolved, the blank wells were used to zero the plate reader. The optical density (OD) of each well was detected at 490 nm. The IC50 value was determined as the concentration of the inhibitor that caused 50% inhibition. Using probability unit and weighted regression method to calculate the IC50 value of compounds.
For orientation: Formazan colour is commonly taken as a measure of viable cells.

Test [5] has as its system SK-MES-1 cells. The test can be described thus: MTT assay SK-MES-1. The format is cell-based.
Test [6] relates to OVCAR-3 cells. The test can be described thus: MTT assay OVCAR-3. The format is cell-based. Conditions: Homo sapiens, 24h of treatment, mean ± SD. The protocol: as §1, §2
The test system of test [7] is A549 cells. As to the kind of experiment: Transwell migration and wound healing, A549. It counts as cell-based, human. Conditions: A549, 0.5, 1.0, 1.5 μM, 24 h. The procedure:
Cell migration ability was measured using transwell chambers (8-μm pore size; Corning Costar, Cambridge, MA, USA). For the transwell assay, A549 and H460 cells suspended in serum-free RPMI-1640 medium containing different concentrations of L14e (0, 0.5, 1.0, and 1.5 μM) were seeded into the upper chamber. The lower chamber contained RPMI-1640 medium supplemented with 20% serum. After 24 h incubation, the filters were fixed in methanol and stained with 0.1% crystal violet. The upper faces of the filters were gently abraded, and the lower faces with cells migrated across the filters were imaged and counted under the microscope. For wound healing assays, cells were placed into 6-well plates and cultured until 100% confluence. An artificial scratch was created using a 200 μL pipette tip. Add serum-free RPMI-1640 medium containing different concentrations of drugs. At 24 h after culturing in serum-free medium, wound closure images were captured in the same field under magnification. Cell healing rates were calculated by the fraction of cell coverage across the line. These experiments were performed in triplicate and repeated three times.

Test [8] relates to A549 cells. The test can be described thus: Annexin V/PI staining flow cytometry, A549. The format is cell-based, human. Conditions: 24 h. The procedure:
The density of the A549 cells and H460 in the logarithmic growth phase was adjusted to 1 × 10^6 cells/mL, and a total of 1 mL of cell suspension and 1 mL of L14e at different concentrations were added into each well with the final compound L14e concentration in each group as 0, 0.5, 1.0, and 1.5 μM. Details are given in Supplementary Materials and Methods.
The density of the A549 cells and H460 in the logarithmic growth phase was adjusted to 1 × 10^6 cells/mL, and then the cell suspension was seeded into a 6-well plate (Becton Dickinson and Company, USA). A total of 1 mL of cell suspension and 1 mL of compound L14e at different concentrations were added into each well with the final compound L14e concentration in each group as 0 μM, 0.5 μM, 1.0 μM, and 1.5μM. After cells were incubated for 24 h at 37 °C, 1 mL of cell suspension per well was collected and centrifuged at 1000 r/min for 10 min at 4°C, and the supernatant was removed. Then, 1 mL of cold PBS was added to the cell pellet, and was shaken lightly to re-suspend the cells. The cells were centrifuged at 1000 r/min at 4 °C for 10 min, and the supernatant was removed. These steps were repeated twice. The cells were re-suspended in 150µL of PBS, 10 µL of fluorescein isothiocyanate (FITC)-labeled Annexin V (Annexin V-FITC) (Promega Corporation, USA) and 5 µL of PI (Promega Corporation, USA) were added. The mixture was gently mixed and incubated in the dark at room temperature for 10 min then stained cells were analyzed using flow cytometry to test the levels of apoptotic cells (Becton Dickinson and Company, USA; FACS Calibur).

T1 sequence (P04818 whole entry): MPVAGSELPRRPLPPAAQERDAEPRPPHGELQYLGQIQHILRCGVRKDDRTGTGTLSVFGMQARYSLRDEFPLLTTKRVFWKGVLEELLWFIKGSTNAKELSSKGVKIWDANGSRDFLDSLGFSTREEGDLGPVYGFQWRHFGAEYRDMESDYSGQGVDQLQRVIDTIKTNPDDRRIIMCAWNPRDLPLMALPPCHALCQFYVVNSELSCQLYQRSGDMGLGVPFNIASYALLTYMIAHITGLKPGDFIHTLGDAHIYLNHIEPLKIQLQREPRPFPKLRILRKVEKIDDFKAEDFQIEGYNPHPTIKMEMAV

Regarding `O=C(Nc1cccc(Cl)c1)Nc1ccccc1NS(=O)(=O)c1c[nH]c(=O)[nH]c1=O` [Compound L14e, N'-(3-chlorophenyl)-2-(2,4-dihydroxypyrimidine-5-sulfonamido)phenyl urea], the “effect on cell cycle” value in test [1] was “arrest the cell cycle in the G1/S phase”. In addition, the “SI (Selectivity index) HPAEpiC” value in test [2] amounted to 19.79. In addition, the values for the IC50 in test [3], in test [4] and in test [6] were 1060 nM, 1950 ± 150 nM and 1680 ± 310 nM, respectively. Further, in test [5], the “inhibition of SK-MES-1 cells” value is given as “did not inhibit”. Also, the “effect on cell migration” value in test [7] was “significantly inhibited the migration”. The apoptotic rate in test [8] (A549, 0.5 μM) worked out at 19.3%; in test [8] (A549, 1.5 μM) it was 43.5%. In addition, the “late apoptosis rate (Q2, Annexin V [+] PI [+])” value in test [8] (A549, 0.5 μM) is 17.7%; in test [8] (A549, 1.0 μM), 27.5%; in test [8] (A549, 1.5 μM), 37.1%.
